In paper PMC6631999, “A Universal Photochemical Method to Prepare Carbohydrate Sensors Based on Perfluorophenylazide Modified Polydopamine for Study of Carbohydrate-Lectin Interactions by QCM Biosensor” (Polymers, 2019):

What was measured:
soybean agglutinin (SBA) = molecular target: T1, soybean agglutinin (SBA) (Glycine max, UniProt P05046); assay: QCM biosensor frequency shift (Attana Cell-A200); format: binding
T1 construct: gene LE1; native commercial plant lectin (Vector Laboratories), in solution

peanut agglutinin (PNA) = molecular target: T2, peanut agglutinin (PNA) (Arachis hypogaea, UniProt P02872); assay: QCM biosensor frequency shift (Attana Cell-A200); format: binding; details: sugar photochemically immobilised on PFPA-polydopamine sensor; lectin 100 ug/mL; 10 mM PBS pH 7.4; BSA-blocked
T2 construct: native commercial plant lectin (Vector Laboratories), in solution
T2 sequence (P02872 24-273): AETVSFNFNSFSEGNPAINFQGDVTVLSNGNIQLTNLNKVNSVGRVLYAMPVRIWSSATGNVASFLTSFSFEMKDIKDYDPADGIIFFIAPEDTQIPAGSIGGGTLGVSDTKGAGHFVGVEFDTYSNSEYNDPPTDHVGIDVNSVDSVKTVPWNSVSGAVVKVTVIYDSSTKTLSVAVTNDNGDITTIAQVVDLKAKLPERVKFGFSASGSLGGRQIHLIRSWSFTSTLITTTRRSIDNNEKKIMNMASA

T1 sequence (P05046 33-285): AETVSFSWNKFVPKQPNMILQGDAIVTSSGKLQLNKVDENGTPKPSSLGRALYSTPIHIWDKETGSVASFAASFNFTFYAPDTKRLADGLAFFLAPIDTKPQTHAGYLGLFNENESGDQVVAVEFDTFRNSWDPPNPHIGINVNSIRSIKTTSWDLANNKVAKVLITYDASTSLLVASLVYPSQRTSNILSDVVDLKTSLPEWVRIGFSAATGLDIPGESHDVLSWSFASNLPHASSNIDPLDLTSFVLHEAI

OC[C@H]1OC(O)[C@H](O)[C@@H](O)[C@H]1O (some centres unmarked) [galactose]
QCM biosensor frequency shift (Attana Cell-A200) (soybean agglutinin (SBA)): SBA has the highest binding with galactose, followed by PNA
QCM biosensor frequency shift (Attana Cell-A200) (peanut agglutinin (PNA)): both SBA and PNA can bind to galactose, but the binding strengths are different
